{
  "source": "paper PMC6823370",
  "about": "“A novel nucleoside rescue metabolic pathway may be responsible for therapeutic effect of orally administered cordycepin” (Scientific Reports, 2019)",
  "key": {"[1]": {"assay": "Liver microsomal stability, rat liver microsomes", "type": "in vitro ADME", "details": "for Fh, parallel-tube model / Fh, well-stirred model / CLint scaled at 1 µM: rat liver microsome, pentostatin −; for CLint scaled at 1 µM: rat, liver microsomes", "description": "Human and rat liver microsomes were used in the experiment following previously reported methods[49],[50]. Microsomes were used at 0.5 mg protein/mL and cordycepin was tested at 1 µM. […] The reaction mixture was incubated in the shaking incubator at 37 °C for 30 min with sampling every 10 min. The results of intrinsic clearance and the fraction that escapes hepatic metabolism (by both well-stirred and parallel-tube models) were calculated by previously reported equations and physiological parameters[50]–[52]. The experiments were performed in triplicates.\n(§1) Samples from studies of plasma stability, protein binding, biorelevant solubility and liver microsomal stability were subjected to liquid-liquid extraction and HPLC-UV analysis. To 100 µL of sample, internal standard (2′-deoxyadenosine) was spiked at 10 µg/mL and 300 µL of 0.1 M NaOH was added. Extraction solvent (3 mL) of ethyl acetate-isopropyl alcohol (85:15, v/v) was added and vortex-mixed for 10 min. Samples were then centrifuged at 1160 g for 5 min and the supernatant was transferred and dried under N2 gas. Dried samples were reconstituted with 100 uL of deionised distilled water (DDW) and 40 µL was injected into the HPLC-UV. The HPLC-UV setup was adopted from a validated method[22] with addition of a gradient scheme to elute the impurities from samples. Waters Alliance 2695 module with Waters 996 PDA detector was used for the HPLC-UV system with Capcell Pak C18 3 µm, 4.6 × 150 mm as the stationary phase. Mobile phase was a mixture of acetonitrile (A) and DDW (B) at flow rate 0.8 mL/min with a gradient scheme of the following: 0–9 min, B 94%; 9–14 min, B decreased to 20%; 14–24 min, B 20%; 24–26 min, B increased to 94%; and 26–35 min, B 94%. Calibration curves were constructed at a range of 10 – 20000 ng/mL and chromatograms were obtained at 259 nm of wavelength."}, "RAW264.7 cells": {"tested_on": "RAW264.7 cells", "assay": "Repression of inflammatory gene expression in LPS-stimulated RAW264.7 cells (qPCR)", "type": "cell-based, mouse", "details": "20 µM, 1 h prior to LPS stimulation", "description": "RAW 264.7 mouse macrophage cells were cultured in DMEM supplemented with 10% FBS. Prior to experiments, cells were washed with PBS and cells were maintained in DMEM with 0.5% FBS or 10% FBS for 24 h. LPS was added at 1 µg/mL, 1 h before compound treatment, when needed. When the cells were analysed for concentration levels of cordycepin, 3′-deoxyinosine and CordyTP, the cells were washed twice with PBS. The cells were then treated with methanol and mixed vigorously before the mixture was harvested. The mixture was filtered using filter tubes mentioned above and the filtrate was analysed by liquid chromatography coupled with tandem mass spectrometry (LC-MS/MS). For determination of relative mRNA levels, RNA was isolated from the lysates using an RNA isolation kit, following manufacturer’s protocol (Promega, Madison, WI, cat no. Z6012). RNA was reverse transcribed to cDNA using SuperScript™ III reverse transcriptase (Invitrogen, Carlsbad, CA). Quantitative polymerase chain reaction (qPCR), was performed with Qiagen Rotor-Gene Q qPCR machine (Qiagen, Hilden, Germany) using Promega SYBR Green GoTaq® qPCR master mix (Promega).\nFigure 3 Repression effect on inflammatory gene expression. (a) NBTI or ITu treatment prior to cordycepin treatment suppresses effect of cordycepin. RAW264.7 cells were treated with 10 µM NBTI, 100 nM ITu or DMSO (Ctrl, control) 15 min prior to cordycepin treatment. The cells were stimulated with LPS 1 h after cordycepin treatment (mean ± SD, n = 3). **p < 0.01; ***p < 0.001 compared to DMSO treatment (labelled as Ctrl). (b) 3′-deoxyinosine exerts same repression effect as cordycepin, although to a lesser degree. RAW264.7 cells were treated with 20 µM cordycepin, 20 µM 3′-deoxyinosine (3DI) or DMSO (Ctrl, control) for 1 h prior to LPS stimulation (mean ± SD, n = 3). **p < 0.01; ***p < 0.001 compared to without compound treatment (labelled as LPS)."}, "[2]": {"assay": "Plasma stability of cordycepin in human plasma", "type": "in vitro ADME", "details": "read-out: ex vivo stability half-life (t1/2) in plasma", "description": "Stability of cordycepin in plasma was tested using human and rat plasma by following a previously reported method with minor modifications. Cordycepin was spiked into the plasma at 10 µM and the samples were incubated in a shaking incubator (Thermo Scientific MaxQ4000, Waltham, MA, USA) at 37 °C and shaken at 250 rpm. Samples (100 µL) were withdrawn at predetermined time points. […] The experiments were performed in triplicates.\nas §1, with “Mobile phase was a mixture of acetonitrile (A) and DDW (B) at flow rate 0.8 mL/min with a gradient scheme of the following: 0–9 min, B 94%; 9–14 min, B decreased to 20%; 14–24 min, B 20%; 24–26 min, B increased to 94%; and 26–35 min, B 94%. Calibration curves were constructed at a range of 10 – 20000 ng/mL and chromatograms were obtained at 259 nm of wavelength.” left out"}, "[3]": {"assay": "Plasma protein binding, ultrafiltration, human plasma", "type": "in vitro ADME", "details": "read-out: fraction unbound (Fub) in plasma", "description": "Cordycepin was spiked into the plasma to give concentrations of 100, 500, 1000 and 5000 ng/mL, and the samples (300 µL) were incubated in the shaking incubator at 250 rpm and 37 °C for 1 h. Following incubation, 100 µL was withdrawn and analysed for Ct. The remaining sample was transferred to a filter device (Amicon Ultra-0.5 Centrifugal Filter Units, MWCO 3000, Merck Millipore, Cork, Ireland) and was centrifuged at 14,000 g for 10 min at room temperature. Filtrate was collected and analysed for Cf. The fraction unbound in plasma (Fub) was calculated by the equation: Cf/Ct × 100 = Fub. Non-specific binding of cordycepin to the filter device was tested at the same concentration range using phosphate buffered saline (PBS) instead of plasma. Experiments were conducted in quadruplicates.\nSamples from studies of plasma stability, protein binding, biorelevant solubility and liver microsomal stability were subjected to liquid-liquid extraction and HPLC-UV analysis. To 100 µL of sample, internal standard (2′-deoxyadenosine) was spiked at 10 µg/mL and 300 µL of 0.1 M NaOH was added. Extraction solvent (3 mL) of ethyl acetate-isopropyl alcohol (85:15, v/v) was added and vortex-mixed for 10 min. Samples were then centrifuged at 1160 g for 5 min and the supernatant was transferred and dried under N2 gas. […]"}, "[4]": {"details": "text summary over rat and human liver microsomes, without pentostatin"}},
  "data": [
    {"smiles": "Nc1ncnc2c1ncn2[C@@H]1O[C@H](CO)C[C@H]1O", "note": "[cordycepin, 3′-deoxyadenosine]", "values": [
      {"measurement": "Fh, parallel-tube model", "setting": "[1]; NADPH +", "result": "0.1 ± 0.0", "unit": "%"},
      {"measurement": "Fh, well-stirred model", "setting": "[1]; NADPH +", "result": "12.4 ± 0.9", "unit": "%"},
      {"measurement": "Fh, parallel-tube model", "setting": "[1]; NADPH −", "result": "0.1 ± 0.1", "unit": "%"},
      {"measurement": "Fh, well-stirred model", "setting": "[1]; NADPH −", "result": "12.5 ± 1.5", "unit": "%"},
      {"measurement": "CLint scaled at 1 µM", "setting": "[1]; NADPH +", "result": "392 ± 31.3", "unit": "mL/min/kg"},
      {"measurement": "CLint scaled at 1 µM", "setting": "[1]; NADPH −", "result": "390 ± 51.4", "unit": "mL/min/kg"},
      {"measurement": "Fh calculated from CLint, parallel-tube model", "setting": "[1]; [4]", "result": "~0", "unit": "%"},
      {"measurement": "Fh calculated from CLint, well-stirred model", "setting": "[1]; [4]", "result": "10–13%"},
      {"measurement": "effect on expression of inflammatory genes", "setting": "RAW264.7 cells", "result": "inhibitory effect"},
      {"measurement": "half-life at 10 µM", "setting": "[2]", "result": "25.8 ± 4", "unit": "min"},
      {"measurement": "fraction unbound at 1 h", "setting": "[3]", "result": "> 0.8"}
    ]}
  ]
}
